Data reported in patent publication US20220008430A1, “METHODS OF TREATING SUBJECTS HAVING PLATELET DYSFUNCTION WITH IV MELOXICAM” (priority 2018, published 2022).
Where two headings read alike, the source gives them in different places.

Columns and labels:
COX-2 / COX-1 = conditions: ratio of IC80 of COX-2 to IC80 of COX-1; Warner 1999; cited from earlier work
platelet function [1] = assay: PFA-100 closure time, ex vivo whole blood, CADP reagent cartridge; assay type: cell-based, human
Protocol: (§1) The PFA-100 device determines closure time by simulating platelet adhesion and aggregation following vascular injury.
(§2) Study subjects (n=13) had approximately 20 mL of whole blood collected in tubes containing 3.2% (0.105 M) buffered sodium citrate (1 part anticoagulant to 9 parts blood).
(§3) Assessment of platelet function: Platelet function was evaluated using the PFA-100 Platelet Function Analyzer (Siemens Healthcare Diagnostics, Deerfield, Ill.). […] Use of this device to measure the effect of drugs on platelet adhesion is well documented. The PFA-100 device determines a sample closure time by simulating the platelet adhesion and aggregation that occurs following vascular injury. Analysis was performed using both collagen with epinephrine (CEPI) and collagen with adenosine diphosphate (CADP) reagent cartridges. […] Whole blood aliquots were treated according to the test condition and incubated for approximately 10 minutes prior to analysis in the PFA-100. All blood samples were analyzed within 2.5 hours of the time of collection. PFA-100 closure time results were reported for each test condition and reagent cartridge. […] Samples outside this range were excluded from the primary analysis.
(§4) Statistical analysis: Treatment effect on CT was analyzed using an analysis of variance (ANOVA). […] Pairwise comparisons were performed; nominal P-values were reported without controlling for multiplicity. Subgroup analysis by gender was also performed. All analyses were performed separately for each reagent.

pain [2] = conditions: intravenous; Prescribing Information; cited from earlier work
platelet aggregation = conditions: healthy volunteers; 0.4 mg/kg; previous studies; cited from earlier work
[3] = cited from earlier work
platelet function [4] = assay: PFA-100 closure time, ex vivo whole blood, CEPI reagent cartridge; assay type: cell-based, human
Protocol: as §1, §2, §3, §4

[5] = cited from earlier work; remark: listed apart in the source
pain [6] = assay: Time course of analgesic effect; assay type: in vivo, human; conditions: meloxicam administration as disclosed (IV)
[7] = all eligible subjects (12 subjects), 2.5 μg/mL
[8] = all eligible subjects (12 subjects), 5 μg/mL

CC(=O)Oc1ccccc1C(=O)O [Aspirin, acetylsalicylic acid]
COX-2/COX-1 IC80 ratio (COX-2 / COX-1): 3.8

O=C(c1ccccc1)c1ccc2n1CCC2C(=O)O (stereo not drawn) [Ketorolac]
COX-2/COX-1 IC80 ratio (COX-2 / COX-1): 294
LS mean closure time (platelet function [1]; [7]): 82.08 s
LS mean closure time (platelet function [1]; [8]): 86.36 s
difference in closure time vs untreated control (platelet function [1]; all tested concentrations): no statistically significant differences
LS mean closure time (platelet function [1]; final analysis set (8 subjects), 2.5 μg/mL in whole blood): 79.41 s
LS mean closure time (platelet function [1]; final analysis set (8 subjects), 2.5 μg/mL in whole blood, listed as ketorolac): 79.41 (5.31) seconds
LS mean closure time (platelet function [1]; final analysis set (8 subjects), 5 μg/mL in whole blood): 87.95 s
LS mean closure time (platelet function [1]; final analysis set (8 subjects), 5 μg/mL in whole blood, listed as ketorolac): 87.95 (5.66) seconds
time to onset of pain relief (pain [2]): up to 30 minutes
bleeding time (platelet aggregation): prolonged bleeding times
epinephrine-, adenosine-, and collagen-induced platelet aggregation (platelet aggregation): significant inhibition
peak concentration ([3]; following 15-mg IV dose): ~2.5 µg/mL
peak concentration ([3]; following 30-mg IV dose): ~5 µg/mL
LS mean closure time (platelet function [4]; [7]): 193.17 s
LS mean closure time (platelet function [4]; [8]): 191.58 s
LS mean closure time (platelet function [4]; final analysis set (8 subjects), 2.5 μg/mL): 180.87 s
LS mean closure time (platelet function [4]; final analysis set (8 subjects), 5 μg/mL): 143.38 s
prolongation in closure time vs untreated control (platelet function [4]; therapeutic (and for meloxicam IV supratherapeutic) concentrations): significant prolongations

COc1ccc2cc([C@H](C)C(=O)O)ccc2c1 [Naproxen]
COX-2/COX-1 IC80 ratio (COX-2 / COX-1): 3

Cc1cnc(NC(=O)C2=C(O)c3ccccc3S(=O)(=O)N2C)s1 [Meloxicam, 4-hydroxy-2-methyl-N-(5-methyl-2-thiazolyl)-2H-1,2-benzothiazine-3-carboxamide-1,1-dioxide]
water solubility [5]: poor water solubility
therapeutic window (pain [6]): at least 24 hours

CC(C)Cc1ccc(C(C)C(=O)O)cc1 (stereo not drawn) [Ibuprofen]
COX-2/COX-1 IC80 ratio (COX-2 / COX-1): 2.6

CS(=O)(=O)c1ccc(C2=C(c3ccccc3)C(=O)OC2)cc1 [Rofecoxib]
COX-2/COX-1 IC80 ratio (COX-2 / COX-1): <0.05
